# From patent US9695155B2, “Herbicidal substituted pyrimidinyloxy benzene compounds” (E. I. DU PONT DE NEMOURS AND COMPANY, priority 2013, dated 2017)
# Legend:
# bermudagrass [1] = assay: Test C postemergence; format: in vivo, Cynodon dactylon; settings: for Plant response rating (0 to 100), Bermudagrass: postemergence; for Plant response rating, Bermudagrass: Postemergence, scale 0 to 100 (0 no effect, 100 complete control)
# From the text: (§1) Seeds of plant species selected from blackgrass (Alopecurus myosuroides), Italian ryegrass (Lolium multiflorum), wheat, winter (winter wheat, Triticum aestivum), galium (catchweed bedstraw, Galium aparine), corn (Zea mays), large (Lg) crabgrass (Digitaria sanguinalis), giant foxtail (Setaria faberii), johnsongrass (Sorghum halepense), lambsquarters (Chenopodium album), morningglory (Ipomoea coccinea), yellow nutsedge (Cyperus esculentus), pigweed (Amaranthus retroflexus), ragweed (common ragweed, Ambrosia elatior), soybean (Glycine max), barnyardgrass (Echinochloa crus-galli), oilseed rape (Brassica napus), waterhemp (common waterhemp, Amaranthus rudis), kochia (Kochia scoparia), wild oat (Avena fatua), surinam grass (Brachiaria decumbens), foxtail, green (green foxtail, Setaria viridis), goosegrass (Eleusine indica), bromegrass, downy (downy bromegrass, Bromus tectorum), nightshade (eastern black nightshade, Solanum ptycanthum), cocklebur (common cocklebur, Xanthium strumarium), cupgrass, woolly (woolly cupgrass, Eriochloa villosa), bermudagrass (Cynodon dactylon), sunflower, (common oilseed sunflower, Helianthus annuus), Russian thistle (Salsola kali), and velvetleaf (Abutilon theophrasti) were planted into a blend of loam soil and sand and treated preemergence with test chemicals formulated in a non-phytotoxic solvent mixture which included a surfactant.
# (§2) At the same time, plants selected from these crop and weed species and also barley, winter (winter barley, Hordeum vulgare), windgrass (Apera spica-venti), chickweed (common chickweed, Stellaria media), deadnettle (henbit deadnettle, Lamium amplexicaule), and canarygrass (littleseed canarygrass, Phalaris minor) were planted in pots containing Redi-Earth® planting medium (Scotts Company, 14111 Scottslawn Road, Marysville, Ohio 43041) comprising spaghnum peat moss, vermiculite, wetting agent and starter nutrients and treated with postemergence applications of test chemicals formulated in the same manner. Plants ranged in height from 2 to 18 cm (1- to 4-leaf stage) for postemergence treatments. Treated plants and controls were maintained in a greenhouse for 13 to 15 days, after which time all species were compared to controls and visually evaluated. Plant response ratings, summarized in Table C, are based on a scale of 0 to 100 where 0 is no effect and 100 is complete control. A dash (-) response means no test result.
# windgrass = assay: Test C postemergence; format: in vivo, Apera spica-venti; settings: for Plant response rating (0 to 100), Windgrass: postemergence; for Plant response rating, Windgrass: Postemergence, scale 0 to 100 (0 no effect, 100 complete control)
# From the text: as §1, §2
# canarygrass = assay: Test C postemergence; format: in vivo, Phalaris minor; settings: for Plant response rating (0 to 100), Canarygrass: postemergence; for Plant response rating, Canarygrass: Postemergence, scale 0 to 100 (0 no effect, 100 complete control)
# From the text: as §1, §2
# barley, winter = assay: Test C postemergence; format: in vivo, Hordeum vulgare; settings: for Plant response rating (0 to 100), Barley: postemergence; for Plant response rating, Barley: Postemergence, scale 0 to 100 (0 no effect, 100 complete control)
# From the text: as §1, §2
# [2] = system: waterhemp_RES1 (ALS & Triazine resistant common waterhemp); assay: Test E postemergence; format: in vivo, Amaranthus rudis
# Method in brief: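 Response was scored visually on a 0-100 scale (100 = complete control) versus controls after 14 to 21 days in the greenhouse. Test chemicals, formulated with surfactant in a non-phytotoxic solvent mixture, had been applied preemergence to seeds in silt loam soil or postemergence to 1- to 4-leaf plants in potting medium.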
# sunflower = assay: Test C preemergence; format: in vivo, Helianthus annuus; settings: for Sunflower plant response rating: preemergence, scale 0 (no effect) to 100 (complete control)
# From the text: as §1, §2
# surinam grass = assay: Test C preemergence; format: in vivo, Brachiaria decumbens; settings: for Surinam Grass plant response rating: preemergence, scale 0 (no effect) to 100 (complete control)
# From the text: as §1, §2
# cupgrass, woolly = assay: Test C preemergence; format: in vivo, Eriochloa villosa; settings: for Cupgrass, Woolly plant response rating: preemergence, scale 0 (no effect) to 100 (complete control)
# From the text: as §1, §2
# wild oat = assay: Test C preemergence; format: in vivo, Avena fatua; settings: for Oat, Wild plant response rating: preemergence, scale 0 (no effect) to 100 (complete control)
# From the text: as §1, §2
# foxtail, green = assay: Test C preemergence; format: in vivo, Setaria viridis; settings: for Foxtail, Green plant response rating: preemergence, scale 0 (no effect) to 100 (complete control)
# From the text: as §1, §2
# nightshade = assay: Test C preemergence; format: in vivo, Solanum ptycanthum; settings: for Nightshade plant response rating: preemergence, scale 0 (no effect) to 100 (complete control)
# From the text: as §1, §2
# bromegrass, downy = assay: Test C preemergence; format: in vivo, Bromus tectorum; settings: for Bromegrass, Downy plant response rating: preemergence, scale 0 (no effect) to 100 (complete control)
# From the text: as §1, §2
# bermudagrass [3] = assay: Test C preemergence; format: in vivo, Cynodon dactylon; settings: for Bermudagrass plant response rating: preemergence, scale 0 (no effect) to 100 (complete control)
# From the text: as §1, §2
# [4] = Postemergence, 31 g ai/ha, scale 0 to 100
# [5] = Postemergence, 62 g ai/ha, scale 0 to 100
# [6] = Postemergence, 125 g ai/ha, scale 0 to 100
# [7] = postemergence, 16 g ai/ha, scale 0 to 100, 0 no effect, 100 complete control
# [8] = Preemergence, 31 g ai/ha, scale 0 to 100, 0 no effect, 100 complete control
compound,measurement,setting,value
"Fc1cnc(Oc2ccccc2-n2cc(Br)cn2)nc1 [Compound 10, 2-[2-(4-bromo-1H-pyrazol-1-yl)phenoxy]-5-fluoropyrimidine]","Plant response rating (0 to 100), Bermudagrass",bermudagrass [1]; 125 g ai/ha,5
same,"Plant response rating (0 to 100), Bermudagrass",bermudagrass [1]; 250 g ai/ha,50
same,"Plant response rating, Bermudagrass","bermudagrass [1]; 31 g ai/ha, 13 to 15 days",0
same,"Plant response rating, Bermudagrass",bermudagrass [1]; 62 g ai/ha,5
same,"Plant response rating (0 to 100), Windgrass",windgrass; 125 g ai/ha,50
same,"Plant response rating (0 to 100), Windgrass",windgrass; 250 g ai/ha,65
same,"Plant response rating, Windgrass","windgrass; 31 g ai/ha, 13 to 15 days",10
same,"Plant response rating, Windgrass",windgrass; 62 g ai/ha,10
same,"Plant response rating (0 to 100), Canarygrass",canarygrass; 125 g ai/ha,25
same,"Plant response rating (0 to 100), Canarygrass",canarygrass; 250 g ai/ha,40
same,"Plant response rating, Canarygrass","canarygrass; 31 g ai/ha, 13 to 15 days",0
same,"Plant response rating, Canarygrass",canarygrass; 62 g ai/ha,0
same,"Plant response rating (0 to 100), Barley","barley, winter; 125 g ai/ha",5
same,"Plant response rating (0 to 100), Barley","barley, winter; 250 g ai/ha",10
same,"Plant response rating, Barley","barley, winter; 31 g ai/ha, 13 to 15 days",0
same,"Plant response rating, Barley","barley, winter; 62 g ai/ha",5
"N#Cc1cccc(Oc2ncc(Br)cn2)c1-n1cc(C(F)(F)F)cn1 [Compound 59, 3-[(5-bromo-2-pyrimidinyl)oxy]-2-[4-(trifluoromethyl)-1H-pyrazol-1-yl]benzonitrile]","Plant response rating, Waterhemp_RES1",[2]; [4],80
same,"Plant response rating, Waterhemp_RES1",[2]; [5],90
same,"Plant response rating, Waterhemp_RES1",[2]; [6],95
same,"Plant response rating, Waterhemp_RES1","[2]; Postemergence, 250 g ai/ha, scale 0 to 100",100
same,"Plant response rating, Waterhemp_RES1",[2]; [7],70
"Clc1cnc(Oc2ccccc2-n2cc(Br)cn2)nc1 [Compound 7, 2-[2-(4-bromo-1H-pyrazol-1-yl)phenoxy]-5-chloropyrimidine]",Sunflower plant response rating,sunflower; 62 g ai/ha,10
same,Sunflower plant response rating,sunflower; 125 g ai/ha,10
same,Sunflower plant response rating,sunflower; 250 g ai/ha,10
same,"Plant response rating, Sunflower",sunflower; [8],0
same,"Plant response rating (0 to 100), Bermudagrass",bermudagrass [1]; 125 g ai/ha,15
same,"Plant response rating (0 to 100), Bermudagrass",bermudagrass [1]; 250 g ai/ha,70
same,"Plant response rating, Bermudagrass","bermudagrass [1]; 31 g ai/ha, 13 to 15 days",0
same,"Plant response rating, Bermudagrass",bermudagrass [1]; 62 g ai/ha,5
same,Surinam Grass plant response rating,surinam grass; 62 g ai/ha,5
same,Surinam Grass plant response rating,surinam grass; 125 g ai/ha,30
same,Surinam Grass plant response rating,surinam grass; 250 g ai/ha,85
same,"Plant response rating, Surinam Grass",surinam grass; [8],0
same,"Cupgrass, Woolly plant response rating","cupgrass, woolly; 62 g ai/ha",55
same,"Cupgrass, Woolly plant response rating","cupgrass, woolly; 125 g ai/ha",98
same,"Cupgrass, Woolly plant response rating","cupgrass, woolly; 250 g ai/ha",98
same,"Plant response rating, Cupgrass, Woolly","cupgrass, woolly; [8]",15
same,"Plant response rating, Waterhemp_RES1",[2]; [4],80
same,"Plant response rating, Waterhemp_RES1",[2]; [5],95
same,"Plant response rating, Waterhemp_RES1",[2]; [6],90
same,"Plant response rating, Waterhemp_RES1","[2]; postemergence, 8 g ai/ha, scale 0 to 100, 0 no effect, 100 complete control",65
same,"Plant response rating, Waterhemp_RES1",[2]; [7],70
same,"Oat, Wild plant response rating",wild oat; 62 g ai/ha,5
same,"Oat, Wild plant response rating",wild oat; 125 g ai/ha,50
same,"Oat, Wild plant response rating",wild oat; 250 g ai/ha,80
same,"Plant response rating, Oat, Wild",wild oat; [8],0
same,"Foxtail, Green plant response rating","foxtail, green; 62 g ai/ha",90
same,"Foxtail, Green plant response rating","foxtail, green; 125 g ai/ha",90
same,"Foxtail, Green plant response rating","foxtail, green; 250 g ai/ha",95
same,"Plant response rating, Foxtail, Green","foxtail, green; [8]",50
same,Nightshade plant response rating,nightshade; 62 g ai/ha,95
same,Nightshade plant response rating,nightshade; 125 g ai/ha,95
same,Nightshade plant response rating,nightshade; 250 g ai/ha,98
same,"Plant response rating, Nightshade",nightshade; [8],80
same,"Bromegrass, Downy plant response rating","bromegrass, downy; 62 g ai/ha",5
same,"Bromegrass, Downy plant response rating","bromegrass, downy; 125 g ai/ha",45
same,"Bromegrass, Downy plant response rating","bromegrass, downy; 250 g ai/ha",75
same,"Plant response rating, Bromegrass, Downy","bromegrass, downy; [8]",0
same,"Plant response rating (0 to 100), Windgrass",windgrass; 125 g ai/ha,55
same,"Plant response rating (0 to 100), Windgrass",windgrass; 250 g ai/ha,80
same,"Plant response rating, Windgrass","windgrass; 31 g ai/ha, 13 to 15 days",10
same,"Plant response rating, Windgrass",windgrass; 62 g ai/ha,55
same,"Plant response rating (0 to 100), Canarygrass",canarygrass; 125 g ai/ha,30
same,"Plant response rating (0 to 100), Canarygrass",canarygrass; 250 g ai/ha,80
same,"Plant response rating, Canarygrass","canarygrass; 31 g ai/ha, 13 to 15 days",5
same,"Plant response rating, Canarygrass",canarygrass; 62 g ai/ha,10
same,"Plant response rating (0 to 100), Barley","barley, winter; 125 g ai/ha",10
same,"Plant response rating (0 to 100), Barley","barley, winter; 250 g ai/ha",15
same,"Plant response rating, Barley","barley, winter; 31 g ai/ha, 13 to 15 days",0
same,"Plant response rating, Barley","barley, winter; 62 g ai/ha",0
same,Bermudagrass plant response rating,bermudagrass [3]; 62 g ai/ha,100
same,Bermudagrass plant response rating,bermudagrass [3]; 125 g ai/ha,100
same,Bermudagrass plant response rating,bermudagrass [3]; 250 g ai/ha,100
same,"Plant response rating, Bermudagrass",bermudagrass [3]; [8],85
